Measurements published in PubChem BioAssay (NCI).
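Compound exposure: 48 hours, 5 concentrations, 96-well plates. GI50: concentration for 50% inhibition of growth. TGI: concentration producing complete growth inhibition.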

Experiments:
Test in all cases: growth of human tumour cells (NCI), 48 h; in the data active = GI50 below about 0.43 µM; inactive = the rest
NCI/ADR-RES ovarian = tested on: NCI/ADR-RES ovarian
SK-MEL-5 melanoma = tested on: SK-MEL-5 melanoma
MCF7 breast = tested on: MCF7 breast
CAKI-1 renal = tested on: CAKI-1 renal
MOLT-4 leukemia = tested on: MOLT-4 leukemia
SK-OV-3 ovarian = tested on: SK-OV-3 ovarian
OVCAR-5 ovarian = tested on: OVCAR-5 ovarian
UACC-257 melanoma = tested on: UACC-257 melanoma
BT-549 breast = tested on: BT-549 breast
A549 NSCLC = tested on: A549 NSCLC
IGROV1 ovarian = tested on: IGROV1 ovarian
LOX IMVI melanoma = tested on: LOX IMVI melanoma
MDA-MB-435 = tested on: MDA-MB-435
SN12C renal = tested on: SN12C renal
SW-620 colon = tested on: SW-620 colon
SR leukemia = tested on: SR leukemia
OVCAR-3 ovarian = tested on: OVCAR-3 ovarian
SNB-19 CNS = tested on: SNB-19 CNS
HCC-2998 colon = tested on: HCC-2998 colon
DU-145 prostate = tested on: DU-145 prostate
KM12 colon = tested on: KM12 colon
NCI-H460 lung = tested on: NCI-H460 lung
SF-268 CNS = tested on: SF-268 CNS
NCI-H226 lung = tested on: NCI-H226 lung
SNB-75 CNS = tested on: SNB-75 CNS
NCI-H522 lung = tested on: NCI-H522 lung
MDA-MB-231 breast = tested on: MDA-MB-231 breast
U251 CNS = tested on: U251 CNS
NCI-H23 lung = tested on: NCI-H23 lung
COLO 205 colon = tested on: COLO 205 colon
UO-31 renal = tested on: UO-31 renal
SK-MEL-28 melanoma = tested on: SK-MEL-28 melanoma
OVCAR-4 ovarian = tested on: OVCAR-4 ovarian
HS 578T breast = tested on: HS 578T breast
K-562 leukemia = tested on: K-562 leukemia
SF-539 CNS = tested on: SF-539 CNS
HCT-15 colon = tested on: HCT-15 colon
UACC-62 melanoma = tested on: UACC-62 melanoma
HT29 colon = tested on: HT29 colon
786-0 renal = tested on: 786-0 renal
ACHN renal = tested on: ACHN renal
A498 renal = tested on: A498 renal
MALME-3M melanoma = tested on: MALME-3M melanoma
RPMI-8226 leukemia = tested on: RPMI-8226 leukemia
OVCAR-8 ovarian = tested on: OVCAR-8 ovarian
HL-60(TB) leukemia = tested on: HL-60(TB) leukemia
TK-10 renal = tested on: TK-10 renal
HOP-92 NSCLC = tested on: HOP-92 NSCLC
SF-295 CNS = tested on: SF-295 CNS
PC-3 prostate = tested on: PC-3 prostate
CCRF-CEM leukemia = tested on: CCRF-CEM leukemia
EKVX NSCLC = tested on: EKVX NSCLC
HCT-116 colon = tested on: HCT-116 colon
RXF 393 renal = tested on: RXF 393 renal
HOP-62 NSCLC = tested on: HOP-62 NSCLC

COc1ccc([C@H]2O[C@@H](CO)C[C@]2(O)c2ccc(OC)cc2)cc1
> 100 µM: TGI (NCI/ADR-RES ovarian) | TGI (SK-MEL-5 melanoma) | TGI (MCF7 breast) | TGI (CAKI-1 renal) | TGI (MOLT-4 leukemia) | TGI (SK-OV-3 ovarian) | TGI (OVCAR-5 ovarian) | TGI (UACC-257 melanoma) | TGI (BT-549 breast) | TGI (A549 NSCLC) | TGI (IGROV1 ovarian) | TGI (LOX IMVI melanoma) | TGI (MDA-MB-435) | TGI (SN12C renal) | TGI (SW-620 colon) | TGI (SR leukemia) | TGI (OVCAR-3 ovarian) | TGI (SNB-19 CNS) | TGI (HCC-2998 colon) | TGI (DU-145 prostate) | TGI (KM12 colon) | TGI (NCI-H460 lung) | TGI (SF-268 CNS) | TGI (NCI-H226 lung) | TGI (SNB-75 CNS) | TGI (NCI-H522 lung) | TGI (MDA-MB-231 breast) | TGI (U251 CNS) | TGI (NCI-H23 lung) | TGI (COLO 205 colon) | TGI (UO-31 renal) | TGI (SK-MEL-28 melanoma) | TGI (OVCAR-4 ovarian) | TGI (HS 578T breast) | TGI (K-562 leukemia) | TGI (SF-539 CNS) | TGI (HCT-15 colon) | TGI (UACC-62 melanoma) | TGI (HT29 colon) | TGI (786-0 renal) | TGI (ACHN renal) | TGI (A498 renal) | TGI (MALME-3M melanoma) | TGI (RPMI-8226 leukemia) | TGI (OVCAR-8 ovarian) | TGI (HL-60(TB) leukemia) | TGI (TK-10 renal) | TGI (HOP-92 NSCLC) | TGI (SF-295 CNS) | TGI (PC-3 prostate) | TGI (CCRF-CEM leukemia) | TGI (EKVX NSCLC) | TGI (HCT-116 colon) | TGI (RXF 393 renal) | TGI (HOP-62 NSCLC)
inactive: GI50 (NCI/ADR-RES ovarian) > 100 µM | GI50 (SK-MEL-5 melanoma) > 100 µM | GI50 (MCF7 breast) > 100 µM | GI50 (CAKI-1 renal) > 100 µM | GI50 (MOLT-4 leukemia) > 100 µM | GI50 (SK-OV-3 ovarian) > 100 µM | GI50 (OVCAR-5 ovarian) > 100 µM | GI50 (UACC-257 melanoma) > 100 µM | GI50 (BT-549 breast) > 100 µM | GI50 (A549 NSCLC) > 100 µM | GI50 (IGROV1 ovarian) > 100 µM | GI50 (LOX IMVI melanoma) > 100 µM | GI50 (MDA-MB-435) > 100 µM | GI50 (SN12C renal) > 100 µM | GI50 (SW-620 colon) > 100 µM | GI50 (SR leukemia) 49.8 µM | GI50 (OVCAR-3 ovarian) > 100 µM | GI50 (SNB-19 CNS) > 100 µM | GI50 (HCC-2998 colon) > 100 µM | GI50 (DU-145 prostate) > 100 µM | GI50 (KM12 colon) > 100 µM | GI50 (NCI-H460 lung) > 100 µM | GI50 (SF-268 CNS) > 100 µM | GI50 (NCI-H226 lung) > 100 µM | GI50 (SNB-75 CNS) > 100 µM | GI50 (NCI-H522 lung) > 100 µM | GI50 (MDA-MB-231 breast) > 100 µM | GI50 (U251 CNS) > 100 µM | GI50 (NCI-H23 lung) > 100 µM | GI50 (COLO 205 colon) > 100 µM | GI50 (UO-31 renal) > 100 µM | GI50 (SK-MEL-28 melanoma) > 100 µM | GI50 (OVCAR-4 ovarian) > 100 µM | GI50 (HS 578T breast) 39.5 µM | GI50 (K-562 leukemia) > 100 µM | GI50 (SF-539 CNS) > 100 µM | GI50 (HCT-15 colon) > 100 µM | GI50 (UACC-62 melanoma) > 100 µM | GI50 (HT29 colon) > 100 µM | GI50 (786-0 renal) > 100 µM | GI50 (ACHN renal) > 100 µM | GI50 (A498 renal) > 100 µM | GI50 (MALME-3M melanoma) > 100 µM | GI50 (RPMI-8226 leukemia) > 100 µM | GI50 (OVCAR-8 ovarian) > 100 µM | GI50 (HL-60(TB) leukemia) 39.3 µM | GI50 (TK-10 renal) > 100 µM | GI50 (HOP-92 NSCLC) 95.6 µM | GI50 (SF-295 CNS) > 100 µM | GI50 (PC-3 prostate) > 100 µM | GI50 (CCRF-CEM leukemia) > 100 µM | GI50 (EKVX NSCLC) > 100 µM | GI50 (HCT-116 colon) > 100 µM | GI50 (RXF 393 renal) 28.4 µM | GI50 (HOP-62 NSCLC) > 100 µM
